In brackets after ≈: the same amount, converted by molar mass. Activity calls are given as the source filed them. No cut-off for these calls is given here.
The molecules below were run on Staphylococcus aureus (assay: Antibacterial activity against Staphylococcus aureus assessed as growth inhibition after 24 hrs by broth microdilution assay).
Type: functional

SMILES | Activity | MIC
COc1ccc(CCO[C@@H]2O[C@H](CO)[C@@H](OC(=O)/C=C/c3ccc(O)c(OC)c3)[C@H](O[C@@H]3O[C@@H](C)[C@H](O)[C@@H](O)[C@H]3O)[C@H]2O)cc1O | inactive | 
C[C@@H]1O[C@@H](O[C@@H]2[C@@H](O)[C@H](OCCc3ccc(O)c(O)c3)O[C@H](CO)[C@H]2OC(=O)/C=C/c2ccc(O)c(O)c2)[C@H](O)[C@H](O)[C@H]1O | inactive | 
O=C1/C(=C2/C(=O)N([C@@H]3O[C@H](CO)[C@@H](O)[C@H](O)[C@H]3O)c3ccccc32)Nc2ccccc21 |  | 62.5 µM (≈ 26.5 µg/mL)
C[C@@H]1O[C@@H](O[C@@H]2[C@@H](O)[C@H](OCCc3ccc(O)c4c3[C@@]3(Nc5ccccc5C3=O)[C@]3(Nc5ccccc5C3=O)O4)O[C@H](CO)[C@H]2OC(=O)/C=C/c2ccc(O)c(O)c2)[C@H](O)[C@H](O)[C@H]1O | inactive | 
C[C@@H]1O[C@@H](O[C@@H]2[C@@H](O)[C@H](OCCc3ccc(O)c4c3[C@]3(Nc5ccccc5C3=O)[C@@]3(Nc5ccccc5C3=O)O4)O[C@H](CO)[C@H]2OC(=O)/C=C/c2ccc(O)c(O)c2)[C@H](O)[C@H](O)[C@H]1O | inactive | 
COC(=O)c1ccccc1NC(=O)c1[nH]c2ccccc2c1O[C@@H]1O[C@H](CO)[C@@H](O)[C@H](O)[C@H]1O | inactive | 
COC(=O)/C=C/c1[nH]c2ccccc2c1O[C@@H]1O[C@H](CO)[C@@H](O)[C@H](O)[C@H]1O | inactive | 
COc1ccc(CCO[C@@H]2O[C@H](COC(=O)/C=C/c3ccc(O)c(OC)c3)[C@@H](O)[C@H](O[C@@H]3O[C@@H](C)[C@H](O)[C@@H](O)[C@H]3O)[C@H]2O)cc1O | inactive | 
C[C@@H]1O[C@@H](O[C@@H]2[C@@H](O)[C@H](OCCc3ccc(O)c(O)c3)O[C@H](CO)[C@@H]2OC(=O)/C=C/c2ccc(O)c(O)c2)[C@H](O)[C@H](O)[C@H]1O | inactive | 
COc1ccc(CCO[C@@H]2O[C@H](CO)[C@@H](OC(=O)/C=C/c3ccc(O)c(O)c3)[C@H](O[C@@H]3O[C@@H](C)[C@H](O)[C@@H](O)[C@H]3O)[C@H]2O)cc1O | inactive | 

Reference: ChEMBL document CHEMBL3351866, “Indole alkaloid glycosides from the aerial parts of Strobilanthes cusia” (2014)
